Results reported in paper PMC11247627, “Evaluation of Antibacterial Functionalized Dihydropyrimidine Photoaffinity Probes Toward Mechanism of Action Studies” (ACS Medicinal Chemistry Letters, 2024).
≈ marks a conversion by molar mass, not a printed value.

Experiments:
Type in all cases: cell-based
[1] = system: Staphylococcus aureus ATCC 33591 (MRSA); assay: Antibacterial broth microdilution assay (MIC), MRSA ATCC 33591; conditions: amount inhibiting >95% of growth (A600), 18 h, suffix 'I' = partial growth inhibition at the value, >95% at higher concentrations; for MIC: Staphylococcus aureus, read-out: MIC ATCC 33591
Protocol: (§1) These 24 DHP analogues were then screened for inhibition of Staphylococcus aureus growth using microdilution assays. Growth inhibition was examined in methicillin-sensitive S. aureus (ATCC 12600) and two strains of MRSA (ATCC 33591 and ATCC 43300). Antibiotic controls were included in the screen, including carbenicillin, erythromycin, gentamycin, trimethoprim, and vancomycin, and minimum inhibitory concentrations (MICs) were determined for each compound, which were defined as the concentration required to inhibit >95% of bacterial growth (Table 1).
(§2) Antibacterial Microdilution Assay (MIC Determination)
(§3) 1240 The MIC determination assays were performed in a BSL-2 laboratory with appropriate security and biosafety measures. The MICs were determined using a broth microdilution assay closely following the guidelines of the Clinical and Laboratories Standards Institute (CLSI). MICs were determined in duplicate for two biological replicates using 2-fold serial dilutions of test compounds or commercial antibiotics in cation-adjusted Mueller-Hinton broth. The central 60 wells of 96-well plates were 1245 prepared with the compound of interest at the indicated concentration, where 2 µL of the compound in DMSO were added prior to the addition of the culture. Overnight cultures of the different Staphylococcus aureus strains were diluted to provide an initial inoculum of approximately 5 X 10 5 CFU/mL that was delivered to each well in 198 µL of culture (final DMSO concentration of ~1%). Initial inoculum concentrations were verified by plating to count CFU/mL. Each plate was equipped with 1250 experimental controls for full growth (6 wells) and full growth inhibition (6 wells), and all control wells were in the presence of 1% DMSO. The outer 36 wells were filled with 200 µL of culture each to prevent growth effects on the interior 60 wells. The plates were incubated at 37 °C for 18 hours, at which time they were removed from the incubator and were allowed to equilibrate to room temperature for 30 minutes. Absorbance of each well at 600 nm was then read using a microplate reader to 1255 determine the MIC, and visual confirmation of growth inhibition was also performed. If variation was seen in the experimental values, the highest value of two independent trials was listed.

[2] = system: Staphylococcus aureus ATCC 43300 (MRSA); assay: Antibacterial broth microdilution assay (MIC), MRSA ATCC 43300; conditions: amount inhibiting >95% of growth (A600), 18 h, suffix 'I' = partial growth inhibition at the value, >95% at higher concentrations; for MIC: Staphylococcus aureus, read-out: MIC ATCC 43300
Protocol: as §1, §2, §3

[3] = system: Staphylococcus aureus ATCC 12600; assay: Antibacterial broth microdilution assay (MIC), methicillin-sensitive S. aureus ATCC 12600; conditions: amount inhibiting >95% of growth (A600), 18 h, suffix 'I' = partial growth inhibition at the value, >95% at higher concentrations; for MIC: Staphylococcus aureus, ATCC12600, read-out: MIC ATCC 12600
Protocol: as §1, §2, §3

[4] = system: Staphylococcus aureus; assay: S. aureus growth inhibition (all three strains or strain not specified); conditions: for MIC: Staphylococcus aureus, all three S. aureus strains or strain not specified, read-out: concentration inhibiting S. aureus growth (MIC); for antibacterial potency of alkynyl esters compared to their ethyl variants: MIC comparison, Table 3
Protocol: as §1, §2, §3

CCOC(=O)C1=C(c2ccccc2)NC(N)=NC1c1c(C)cccc1C (centres unmarked) [6n]
MIC [1]: 64 µg/mL (≈ 183 µM)

CCOC(=O)C1=C(c2ccccc2)NC(N)=NC1c1cccc(C(F)(F)F)c1 (centres unmarked) [6d]
MIC [2]: 32 µg/mL (≈ 82.2 µM)
MIC [1]: 32 µg/mL (≈ 82.2 µM)
MIC [3]: 32 µg/mL (≈ 82.2 µM)

O=Cc1ccc(C2(C(F)(F)F)N=N2)cc1 [compound 25]
MIC [2]: > 64 µg/mL
MIC [3]: > 64 µg/mL
MIC [4]: > 64 µg/mL

CCOC(=O)C1=C(c2ccccc2)NC(N)=NC1c1ccccc1F (centres unmarked) [6f]
MIC [2]: > 64 µg/mL
MIC [1]: > 64 µg/mL
MIC [3]: > 64 µg/mL

CCOC(=O)CC(=O)c1ccc(C2(C(F)(F)F)N=N2)cc1 [compound 11]
MIC [2]: > 64 µg/mL
MIC [3]: > 64 µg/mL
MIC [4]: > 64 µg/mL

CCOC(=O)C1=C(CC)NC(N)=NC1c1ccc(-c2ccccc2)cc1 (centres unmarked) [7d]
MIC [1]: 8 µg/mL (≈ 22.9 µM)

C#CCCCOC(=O)C1=C(c2ccccc2)NC(N)=NC1c1cc(Cl)cc(Cl)c1 (centres unmarked) [26f]
MIC [2]: 4 µg/mL (≈ 9.34 µM)
MIC [3]: 4 µg/mL (≈ 9.34 µM)
antibacterial potency of alkynyl esters compared to their ethyl variants [4]: 2-fold increased potency

C#CCCCOC(=O)C1=C(c2ccccc2)NC(N)=NC1c1ccc(C2(C(F)(F)F)N=N2)cc1 (centres unmarked) [26g]
MIC [2]: 4 µg/mL (≈ 8.56 µM)
MIC [3]: 4 µg/mL (≈ 8.56 µM)
antibacterial potency of alkynyl esters compared to their ethyl variants [4]: equal potency

CCOC(=O)C1=C(c2ccccc2)NC(N)=NC1c1cccc(OC)c1 (centres unmarked) [6t]
MIC [2]: > 64 µg/mL
MIC [1]: > 64 µg/mL
MIC [3]: > 64 µg/mL

C#CCCCOC(=O)C1=C(c2ccc(C3(C(F)(F)F)N=N3)cc2)NC(N)=NC1c1ccc(CC(C)C)cc1 (centres unmarked) [26h]
MIC [2]: 2 µg/mL (≈ 3.82 µM)
MIC [3]: 2 µg/mL (≈ 3.82 µM)
antibacterial potency of alkynyl esters compared to their ethyl variants [4]: equal potency
MIC [4]: 2 µg/mL (≈ 3.82 µM)

CCOC(=O)C1=C(c2ccc(C3(C(F)(F)F)N=N3)cc2)NC(N)=NC1c1ccc(CC(C)C)cc1 (centres unmarked) [26c]
MIC [2]: 2 µg/mL (≈ 4.12 µM)
MIC [3]: 2 µg/mL (≈ 4.12 µM)

CCOC(=O)C1=C(c2ccccc2)NC(N)=NC1c1cc(C)cc(C)c1 (centres unmarked) [6q]
MIC [2]: > 64 µg/mL
MIC [1]: > 64 µg/mL
MIC [3]: > 64 µg/mL

CCOC(=O)C1=C(c2cccc(C)c2)NC(N)=NC1c1ccc(CC(C)C)cc1 (centres unmarked) [7j]
MIC [2]: 4 µg/mL (≈ 10.2 µM)
MIC [1]: 4 µg/mL (≈ 10.2 µM)
MIC [3]: 4 µg/mL (≈ 10.2 µM)

CCOC(=O)C1=C(c2ccc(C3(C(F)(F)F)N=N3)cc2)NC(N)=NC1c1cc(Cl)cc(Cl)c1 (centres unmarked) [26b]
MIC [2]: 4 µg/mL (≈ 8.03 µM)
MIC [3]: 4 µg/mL (≈ 8.03 µM)

CC1(C)S[C@@H]2[C@H](NC(=O)C(C(=O)O)c3ccccc3)C(=O)N2[C@H]1C(=O)O (some centres unmarked) [carbenicillin, reference compound]
MIC [2]: 32 µg/mL (≈ 84.6 µM)
MIC [1]: 128 µg/mL (≈ 338 µM)
MIC [3]: 2 µg/mL (≈ 5.29 µM)

CCOC(=O)C1=C(c2ccccc2)NC(N)=NC1c1ccc(C)cc1 (centres unmarked) [6m]
MIC [2]: > 64 µg/mL
MIC [1]: > 64 µg/mL
MIC [3]: > 64 µg/mL

CCOC(=O)C1=C(c2ccccc2)NC(N)=NC1c1ccc(C2(C(F)(F)F)N=N2)cc1 (centres unmarked) [26a]
MIC [2]: 4 µg/mL (≈ 9.32 µM)
MIC [3]: 4 µg/mL (≈ 9.32 µM)

CCOC(=O)C1=C(c2ccccc2)NC(N)=NC1c1cccc([N+](=O)[O-])c1 (centres unmarked) [6b]
MIC [3]: 64 µg/mL (≈ 175 µM)

CCOC(=O)C1=C(c2ccccc2)NC(N)=NC1c1ccc([N+](=O)[O-])cc1 (centres unmarked) [6c]
MIC [2]: 64 µg/mL (≈ 175 µM)
MIC [1]: 64 µg/mL (≈ 175 µM)
MIC [3]: 64 µg/mL (≈ 175 µM)

CC[C@H]1OC(=O)[C@H](C)[C@@H](O[C@H]2C[C@@](C)(OC)[C@@H](O)[C@H](C)O2)[C@H](C)[C@@H](O[C@@H]2O[C@H](C)C[C@H](N(C)C)[C@H]2O)[C@](C)(O)C[C@@H](C)C(=O)[C@H](C)[C@@H](O)[C@]1(C)O [erythromycin, reference compound]
MIC [2]: > 512 µg/mL
MIC [1]: > 512 µg/mL
MIC [3]: 0.5 µg/mL (≈ 0.681 µM)

gentamycin [reference compound]
MIC ATCC 43300 [2]: 128 µg/mL
MIC ATCC 33591 [1]: 4 µg/mL
MIC ATCC 12600 [3]: 4 µg/mL

CCOC(=O)C1=C(c2ccccc2)NC(N)=NC1c1ccccc1[N+](=O)[O-] (centres unmarked) [6a]
MIC [2]: > 64 µg/mL
MIC [1]: > 64 µg/mL
MIC [3]: > 64 µg/mL

CCOC(=O)C1=C(c2ccccc2)NC(N)=NC1c1ccc(C)c(C)c1 (centres unmarked) [6p]
MIC [2]: 32 µg/mL (≈ 91.6 µM)

CCOC(=O)C1=C(c2ccccc2)NC(N)=NC1c1cc(OC)cc(OC)c1 (centres unmarked) [6v]
MIC [2]: > 64 µg/mL
MIC [1]: > 64 µg/mL
MIC [3]: > 64 µg/mL

CCOC(=O)C1=C(c2ccccc2)NC(N)=NC1c1ccc(C(F)(F)F)cc1 (centres unmarked) [6e]
MIC [2]: 16 µg/mL (≈ 41.1 µM)
MIC [1]: 16 µg/mL (≈ 41.1 µM)
MIC [3]: 16 µg/mL (≈ 41.1 µM)
